In patent publication US8614236B2 (University of Washington, priority 2006, dated 2013):

What was measured:
Assay type in all cases: in vivo
Beagle dogs [1] = assay: Dog study: plasma hormones, electrolytes and renal function; settings: for plasma renin activity: both acetazolamide protocols (iv, po)
Description: (§1) A total of 30 experiments were performed on six female Beagle dogs (body wt 14.3±0.3 kg). The dogs were kept under highly standardized conditions and received a standardized diet five days before the experiments. The preparation and catheterization of the conscious dog were performed according to former experiments as in Höhne C., et al., J Appl Physiol (2004), which is hereby incorporated by reference in its entirety. To permit spontaneous breathing through a low resistance circuit, a face mask was attached, which enclosed the dog's snout in a leak proof fashion. This custom made mask is equipped with a 2.5 cm ID connector to connect it to a ventilator set to CPAP mode (3 4 cmH20) (Servo900C; Siemens-Elema, Erlangen/Germany).
(§2) Six dogs were studied in five different protocols in randomized order:
(§3) 4) Benzolamide intravenously: Bolus (2 mg/kg), followed by a continuous infusion of 2 mg·kg^−1·h^−1, a dosage which inhibits only renal and vascular endothelial extracellular CA, without affecting red cell CA as in Travis D. M., et al. J Pharmacol Exp Ther (1964), which is hereby incorporated by reference in its entirety. 5) Ethoxzolamide (Sigma-Aldrich, Steinheim/Germany) intravenously: Bolus ethoxzolamide (1 mg/kg), followed by a continuous infusion of 1 mg·kg^−1·h^−1.
(§4) In control experiments, the dogs breathed room air (21% O2, 79% N2; normoxia) for one hour, followed by breathing a gas mixture containing 10% O2 and 90% N2 for two hours (hypoxia). The time course was the same for the CA inhibitor experiments, but F1O2 was reduced to 0.09 during the hypoxia period to match the arterial and alveolar PO2 of the control dogs, which otherwise would have been higher on 10% O2 as a result of the known ventilatory stimulant effect of all CA inhibitors. See Höhne C., et al., J Appl Physiol 97:515-521 (2004), which is hereby incorporated by reference in its entirety. The hemodynamic measurements (arterial blood pressure, heart rate, central venous pressure, pulmonary artery pressure, pulmonary capillary wedge pressure), minute ventilation, renal function data, time points for blood samples for blood gases, actual bicarbonate, base excess, plasma electrolytes and hormones, measurements of plasma and urinary values were according to former studies. See Höhne C., et al., J Appl Physiol 90:1842-1848 (2001), which is hereby incorporated by reference in its entirety.
(§5) Values are given as means±SEM (n=6). For intra-group comparisons a general linear model of analysis of variance (GLM-ANOVA) for repeated measures was applied (NCSS97/PASS 2000, Saugus/MA, USA). Post-hoc testing of means was performed with Student's t-test. Level of significance for error of first order was adjusted according to Holm's procedure. Statistical significance was assumed at p<0.05.

Beagle dogs [2] = assay: Dog study: arterial blood gases, ventilation and acid-base status in normoxia and hypoxia
Source text: The dogs were kept under highly standardized conditions and received a standardized diet five days before the experiments. […] To permit spontaneous breathing through a low resistance circuit, a face mask was attached, which enclosed the dog's snout in a leak proof fashion. This custom made mask is equipped with a 2.5 cm ID connector to connect it to a ventilator set to CPAP mode (3 4 cmH20) (Servo900C; Siemens-Elema, Erlangen/Germany).
as §2
5) Ethoxzolamide (Sigma-Aldrich, Steinheim/Germany) intravenously: Bolus ethoxzolamide (1 mg/kg), followed by a continuous infusion of 1 mg·kg^−1·h^−1.
The hemodynamic measurements (arterial blood pressure, heart rate, central venous pressure, pulmonary artery pressure, pulmonary capillary wedge pressure), minute ventilation, renal function data, time points for blood samples for blood gases, actual bicarbonate, base excess, plasma electrolytes and hormones, measurements of plasma and urinary values were according to former studies.
as §5

Beagle dogs [3] = assay: Dog study: pulmonary and systemic hemodynamics, hypoxic pulmonary vasoconstriction; settings: for MPAP and PVR during hypoxia (words): iv bolus + continuous infusion (AZ, benzolamide 2 mg/kg + 2 mg/kg/h; ethoxzolamide 1 mg/kg + 1 mg/kg/h)
Description: as §1, §2, §3, §4, §5

[4] = iv bolus + continuous infusion, hypoxia 2nd h
[5] = iv bolus + continuous infusion, hypoxia 3rd h
[6] = iv bolus + continuous infusion, normoxia 1st h
[7] = po 5 mg/kg 12 and 1 hr before, hypoxia 2nd h
[8] = po 5 mg/kg 12 and 1 hr before, hypoxia 3rd h
[9] = po 5 mg/kg 12 and 1 hr before, normoxia 1st h

SMILES: CC(=O)Nc1nnc(S(N)(=O)=O)s1 [AZ, acetazolamide]
- plasma renin activity (Beagle dogs [1]; hypoxia): 5 to 5.6 ng/mL/h
- plasma renin activity (Beagle dogs [1]; normoxia): 2.9 to 3.2 ng/mL/h
- reduction of glomerular filtration rate vs controls (Beagle dogs [1]; iv 2 mg/kg + 2 mg/kg/h, non-significant): 12%
- GFR, glomerular filtration rate (Beagle dogs [1]; [4]): 3.3 ± 0.1 mL/min/kg
- PK, plasma potassium concentration (Beagle dogs [1]; [4]): 2.8 ± 0.1 mM
- UV, urine volume (Beagle dogs [1]; [4]): 0.161 ± 0.022 mL/min/kg
- GFR, glomerular filtration rate (Beagle dogs [1]; [5]): 3.4 ± 0.2 mL/min/kg
- PK, plasma potassium concentration (Beagle dogs [1]; [5]): 2.8 ± 0.1 mM
- UV, urine volume (Beagle dogs [1]; [5]): 0.071 ± 0.01 mL/min/kg
- GFR, glomerular filtration rate (Beagle dogs [1]; [6]): 3.4 ± 0.1 mL/min/kg
- PK, plasma potassium concentration (Beagle dogs [1]; [6]): 3.0 ± 0.1 mM
- UV, urine volume (Beagle dogs [1]; [6]): 0.099 ± 0.013 mL/min/kg
- GFR, glomerular filtration rate (Beagle dogs [1]; [7]): 3.4 ± 0.3 mL/min/kg
- PK, plasma potassium concentration (Beagle dogs [1]; [7]): 2.9 ± 0.1 mM
- UKV, urinary potassium concentration (Beagle dogs [1]; [7]): 1.6 ± 0.3 µmol/min/kg
- UV, urine volume (Beagle dogs [1]; [7]): 0.083 ± 0.024 mL/min/kg
- urinary excretion rate (potassium in 2.2, sodium in 2.3) (Beagle dogs [1]; [7]): 1.6 ± 0.3 µmol/min/kg
- GFR, glomerular filtration rate (Beagle dogs [1]; [8]): 3.3 ± 0.2 mL/min/kg
- PK, plasma potassium concentration (Beagle dogs [1]; [8]): 2.9 ± 0.1 mM
- UKV, urinary potassium concentration (Beagle dogs [1]; [8]): 1.6 ± 0.4 µmol/min/kg
- UV, urine volume (Beagle dogs [1]; [8]): 0.048 ± 0.011 mL/min/kg
- urinary excretion rate (potassium in 2.2, sodium in 2.3) (Beagle dogs [1]; [8]): 1.3 ± 0.1 µmol/min/kg
- GFR, glomerular filtration rate (Beagle dogs [1]; [9]): 3.1 ± 0.2 mL/min/kg
- PK, plasma potassium concentration (Beagle dogs [1]; [9]): 2.9 ± 0.1 mM
- UV, urine volume (Beagle dogs [1]; [9]): 0.057 ± 0.011 mL/min/kg
- BEa, arterial base excess (Beagle dogs [2]; [4]): -4.0 ± 0.3 mM
- HCO3a, arterial actual bicarbonate concentration (Beagle dogs [2]; [4]): 19.0 ± 0.4 mM
- PaCO2, arterial carbon dioxide tension (Beagle dogs [2]; [4]): 30 ± 1 Torr
- PaO2, arterial oxygen tension (Beagle dogs [2]; [4]): 37 ± 1 Torr
- VE, minute ventilation (Beagle dogs [2]; [4]): 5.8 ± 0.6 L/min
- BEa, arterial base excess (Beagle dogs [2]; [5]): -5.6 ± 0.5 mM
- HCO3a, arterial actual bicarbonate concentration (Beagle dogs [2]; [5]): 17.5 ± 0.5 mM
- PaCO2, arterial carbon dioxide tension (Beagle dogs [2]; [5]): 28 ± 1 Torr
- PaO2, arterial oxygen tension (Beagle dogs [2]; [5]): 39 ± 1 Torr
- VE, minute ventilation (Beagle dogs [2]; [5]): 7.0 ± 0.6 L/min
- BEa, arterial base excess (Beagle dogs [2]; [6]): -3.1 ± 0.5 mM
- HCO3a, arterial actual bicarbonate concentration (Beagle dogs [2]; [6]): 20.9 ± 0.6 mM
- PaCO2, arterial carbon dioxide tension (Beagle dogs [2]; [6]): 34 ± 1 Torr
- PaO2, arterial oxygen tension (Beagle dogs [2]; [6]): 106 ± 3 Torr
- VE, minute ventilation (Beagle dogs [2]; [6]): 4.0 ± 0.3 L/min
- BEa, arterial base excess (Beagle dogs [2]; [7]): -5.8 ± 0.4 mM
- HCO3a, arterial actual bicarbonate concentration (Beagle dogs [2]; [7]): 17.6 ± 0.6 mM
- PaCO2, arterial carbon dioxide tension (Beagle dogs [2]; [7]): 29 ± 1 Torr
- PaO2, arterial oxygen tension (Beagle dogs [2]; [7]): 37 ± 1 Torr
- VE, minute ventilation (Beagle dogs [2]; [7]): 5.9 ± 0.2 L/min
- BEa, arterial base excess (Beagle dogs [2]; [8]): -6.5 ± 0.4 mM
- PaCO2, arterial carbon dioxide tension (Beagle dogs [2]; [8]): 27 ± 1 Torr
- PaO2, arterial oxygen tension (Beagle dogs [2]; [8]): 38 ± 1 Torr
- VE, minute ventilation (Beagle dogs [2]; [8]): 6.1 ± 0.2 L/min
- BEa, arterial base excess (Beagle dogs [2]; [9]): -7.2 ± 0.6 mM
- HCO3a, arterial actual bicarbonate concentration (Beagle dogs [2]; [9]): 17.1 ± 0.7 mM
- PaCO2, arterial carbon dioxide tension (Beagle dogs [2]; [9]): 32 ± 1 Torr
- PaO2, arterial oxygen tension (Beagle dogs [2]; [9]): 108 ± 2 Torr
- VE, minute ventilation (Beagle dogs [2]; [9]): 4.5 ± 0.3 L/min
- pHa, arterial pH (Beagle dogs [2]; [9]): 7.34 ± 0.01
- MPAP and PVR during hypoxia (words) (Beagle dogs [3]): did not change
- MPAP and PVR during hypoxia (words) (Beagle dogs [3]; listed as acetazolamide): still inhibited
- CO, cardiac output (Beagle dogs [3]; [4]): 2.6 ± 0.2 L/min
- CVP, central venous pressure (Beagle dogs [3]; [4]): 2.6 ± 0.6 cmH2O
- HR, heart rate (Beagle dogs [3]; [4]): 92 ± 9 beats/min
- MAP, mean arterial pressure (Beagle dogs [3]; [4]): 109 ± 7 mmHg
- MPAP, mean pulmonary arterial pressure (Beagle dogs [3]; [4]): 15 ± 1 mmHg
- PCWP, pulmonary capillary wedge pressure (Beagle dogs [3]; [4]): 3.5 ± 0.3 cm H2O
- SVR, systemic vascular resistance (Beagle dogs [3]; [4]): 3348 ± 260 dyn · s^1 · cm^−5
- CO, cardiac output (Beagle dogs [3]; [5]): 2.4 ± 0.1 L/min
- CVP, central venous pressure (Beagle dogs [3]; [5]): 1.8 ± 0.5 cmH2O
- HR, heart rate (Beagle dogs [3]; [5]): 98 ± 8 beats/min
- MAP, mean arterial pressure (Beagle dogs [3]; [5]): 111 ± 6 mmHg
- MPAP, mean pulmonary arterial pressure (Beagle dogs [3]; [5]): 14 ± 1 mmHg
- PCWP, pulmonary capillary wedge pressure (Beagle dogs [3]; [5]): 3.3 ± 0.2 cm H2O
- SVR, systemic vascular resistance (Beagle dogs [3]; [5]): 3675 ± 241 dyn · s^1 · cm^−5
- CO, cardiac output (Beagle dogs [3]; [6]): 2.4 ± 0.2 L/min
- CVP, central venous pressure (Beagle dogs [3]; [6]): 1.8 ± 0.3 cmH2O
- HR, heart rate (Beagle dogs [3]; [6]): 70 ± 5 beats/min
- MAP, mean arterial pressure (Beagle dogs [3]; [6]): 97 ± 4 mmHg
- MPAP, mean pulmonary arterial pressure (Beagle dogs [3]; [6]): 14 ± 0 mmHg
- PCWP, pulmonary capillary wedge pressure (Beagle dogs [3]; [6]): 3.5 ± 0.6 cm H2O
- SVR, systemic vascular resistance (Beagle dogs [3]; [6]): 3347 ± 260 dyn · s^1 · cm^−5
- PVR during hypoxia (Beagle dogs [3]; po 5 mg/kg 12 and 1 hr before): did not change
- MPAP during hypoxia (Beagle dogs [3]; po 5 mg/kg 12 and 1 hr before, after 2 hrs of hypoxia): increased slightly
- CO, cardiac output (Beagle dogs [3]; [7]): 2.8 ± 0.2 L/min
- CVP, central venous pressure (Beagle dogs [3]; [7]): 1.5 ± 0.2 cmH2O
- HR, heart rate (Beagle dogs [3]; [7]): 101 ± 9 beats/min
- MAP, mean arterial pressure (Beagle dogs [3]; [7]): 110 ± 5 mmHg
- MPAP, mean pulmonary arterial pressure (Beagle dogs [3]; [7]): 17 ± 1 mmHg
- PCWP, pulmonary capillary wedge pressure (Beagle dogs [3]; [7]): 3.3 ± 0.3 cm H2O
- SVR, systemic vascular resistance (Beagle dogs [3]; [7]): 3238 ± 326 dyn · s^1 · cm^−5
- CO, cardiac output (Beagle dogs [3]; [8]): 2.7 ± 0.3 L/min
- CVP, central venous pressure (Beagle dogs [3]; [8]): 1.3 ± 0.2 cmH2O
- HR, heart rate (Beagle dogs [3]; [8]): 103 ± 7 beats/min
- MAP, mean arterial pressure (Beagle dogs [3]; [8]): 108 ± 7 mmHg
- MPAP, mean pulmonary arterial pressure (Beagle dogs [3]; [8]): 17 ± 2 mmHg
- PCWP, pulmonary capillary wedge pressure (Beagle dogs [3]; [8]): 3.6 ± 0.4 cm H2O
- SVR, systemic vascular resistance (Beagle dogs [3]; [8]): 3270 ± 380 dyn · s^1 · cm^−5
- CO, cardiac output (Beagle dogs [3]; [9]): 2.5 ± 0.2 L/min
- CVP, central venous pressure (Beagle dogs [3]; [9]): 2.0 ± 0.3 cmH2O
- HR, heart rate (Beagle dogs [3]; [9]): 78 ± 5 beats/min
- MAP, mean arterial pressure (Beagle dogs [3]; [9]): 99 ± 1 mmHg
- MPAP, mean pulmonary arterial pressure (Beagle dogs [3]; [9]): 12 ± 1 mmHg
- PCWP, pulmonary capillary wedge pressure (Beagle dogs [3]; [9]): 3.5 ± 0.3 cm H2O
- SVR, systemic vascular resistance (Beagle dogs [3]; [9]): 3301 ± 320 dyn · s^1 · cm^−5
